Consider 37 molecules from patent US11111217B2, “2-arylbenzimidazoles as Ppargc1a activators for treating neurodegenerative diseases” (The Board of Trustees of the Leland Stanford Junior …, priority 2018, dated 2021).

The assay has as its system TNF-α production by BV2 cells or PBMC. In words: Cellular assay to measure TNF-α inhibition (LPS-stimulated, ELISA). It counts as cell-based, murine (BV2) or human (PBMC). Particulars: BV2 cells or PBMC (not specified), LPS 100 ng/ml over 24 hours, relative to DMSO vehicle; compound concentration not stated. The source says: Oxidative metabolism exerts an anti-inflammatory effect on myeloid cell phenotype (O'Neill L A, Front Immunol. 2014) and Ppargc1a can promote this energy metabolic pathway (Spiegelman BM, Novartis Found Symp. 2007). Thus, pharmacological activation of Ppargc1a would be expected to inhibit the inflammatory response of myeloid cells. This phenomenon can be measured in cultures by a TNF-α inhibition assay.
Cellular Assay Protocol to Measure TNF-α Inhibition
The murine myeloid cell line BV2 or human peripheral blood mononuclear cells (PBMC) are cultured in RPMI 1640 media (Cat #11875119, Gibco) supplemented with 10% fetal bovine serum and 1% L-glutamine 1% penicillin. These cells are then stimulated with 100 ng/ml of lipopolysaccharide (LPS, O111:B34, Cat # L2630, Sigma) over 24 hours. LPS stimulation results in the secretion of the inflammatory cytokine TNF-α by BV2 cells or PBMC, which can be quantified by ELISA in culture supernatant samples per manufacturer's protocol (Cat #558273 for BV2 and Cat #558299 for PBMC, BD Biosciences). To determine whether exampl compounds 1-78 inhibit TNF-α production by BV2 cells or PBMC, the cells were cultured in the presence of the compounds at different concentrations, and fold reduction in TNF-α production relative to TNF-α production by the same cells cultured in the presence of dimethylsulfoxide (as vehicle control) was determined.
(In general: ELISA stands for enzyme-linked immunosorbent assay.)

For the molecule `CC(C)(C)Oc1ccc(-c2nc3ccccc3[nH]2)cc1` [Example 71, 2-(4-tert-Butoxyphenyl)-1H-benzo[d]imidazole], the “TNF α Inhibition” value is “B (B = 50-80% inh.)”.

Take `Nc1ccccc1-c1nc2ccccc2[nH]1` [Example 48, 2-(2-Aminophenyl)-1H-benzo[d]imidazole]: the “TNF α Inhibition” value is “C (C = <50% inh.)”.

On to `COc1ccc2[nH]c(-c3ccc(C(C)(C)C)cc3)nc2c1` [Example 29, 2-(4-tert-Butylphenyl)-5-methoxy-1H-benzo[d]imidazole], for which the “TNF α Inhibition” value is listed as “A (A = >80% inh.)”.

On to `FC(F)Oc1ccc(-c2nc3ccccc3[nH]2)cc1` [Example 70, 2-(4-(Difluoromethoxy)phenyl)-1H-benzo[d]imidazole], for which the “TNF α Inhibition” value is on record as “B (B = 50-80% inh.)”.

For the molecule `FC(F)(F)c1cccc(-c2nc3ccccc3[nH]2)c1` [Example 39, 2-(3-Trifluoromethylphenyl)-1H-benzo[d]imidazole], the “TNF α Inhibition” value is “B (B = 50-80% inh.)”.

Consider `Oc1cccc(-c2nc3ccccc3[nH]2)c1` [Example 40, 2-(3-Hydroxyphenyl)-1H-benzo[d]imidazole], for which the “TNF α Inhibition” value is on record as “C (C = <50% inh.)”.

As to `FC(F)(F)c1ccc(-c2nc3ccccc3[nH]2)cc1` [Example 15, 2-(4-Trifluoro-methylphenyl)-1H-benzo[d]imidazole], the “TNF α Inhibition” value was “C (C = <50% inh.)”.

`FC(F)(F)Oc1ccc(-c2nc3ccccc3[nH]2)cc1` [Example 66, 2-(4-Trifluoromethoxyphenyl)-1H-benzo[d]imidazole]: the “TNF α Inhibition” value is on record as “C (C = <50% inh.)”.

Consider `Clc1ccc(-c2nc3ccccc3[nH]2)cc1` [Example 8, 2-(4-Chlorophenyl)-1H-benzo[d]imidazole], for which the “TNF α Inhibition” value is recorded as “C (C = <50% inh.)”.

Regarding `CC(C)(C)c1ccc(-c2nc3c(Br)cccc3[nH]2)cc1` [Example 54, 2-(4-tert-Butylphenyl)-4-bromo-1H-benzo[d]imidazole], the “TNF α Inhibition” value is recorded as “A (A = >80% inh.)”.

On to `CCc1ccc(-c2nc3ccccc3[nH]2)cc1` [Example 28, 2-(4-Ethylphenyl)-1H-benzo[d]imidazole], for which the “TNF α Inhibition” value is “C (C = <50% inh.)”.

With `Brc1ccc(-c2nc3ccccc3[nH]2)cc1` [Example 26, 2-(4-Bromophenyl)-1H-benzo[d]imidazole], the “TNF α Inhibition” value is given as “C (C = <50% inh.)”.

Take `Cc1ccccc1-c1nc2ccccc2[nH]1` [Example 12, 2-(2-Methylphenyl)-1H-benzo[d]imidazole]: the “TNF α Inhibition” value is on record as “C (C = <50% inh.)”.

On to `Cc1cccc2[nH]c(-c3ccc(C(C)(C)C)cc3)nc12` [Example 45, 2-(4-tert-Butylphenyl)-4-methyl-1H-benzo[d]imidazole], for which the “TNF α Inhibition” value is reported as “A (A = >80% inh.)”.

In the case of `CC(C)(C)c1ccc(-c2nc3cc(C#N)ccc3[nH]2)cc1` [Example 31, 2-(4-tert-Butylphenyl)-1H-benzo[d]imidazole-5-carbonitrile], the “TNF α Inhibition” value is recorded as “A (A = >80% inh.)”.

Consider `CC(C)(C)c1ccc(-c2nc3cc(Br)ccc3[nH]2)cc1` [Example 43, 2-(4-tert-Butylphenyl)-5-bromo-1H-benzo[d]imidazole], for which the “TNF α Inhibition” value is reported as “A (A = >80% inh.)”.

For the molecule `Cc1ccc2[nH]c(-c3ccc(C(C)(C)C)cc3)nc2c1` [Example 38, 2-(4-tert-Butylphenyl)-5-methyl-1H-benzo[d]imidazole], the “TNF α Inhibition” value is “A (A = >80% inh.)”.

Turning to `c1ccc(COc2ccc(-c3nc4ccccc4[nH]3)cc2)cc1` [Example 73, 2-(4-Benzyloxyphenyl)-1H-benzo[d]imidazole], the “TNF α Inhibition” value was “C (C = <50% inh.)”.

`Fc1ccc(-c2nc3ccccc3[nH]2)cc1` [Example 34, 2-(4-Fluorophenyl)-1H-benzo[d]imidazole]: the “TNF α Inhibition” value is “C (C = <50% inh.)”.

In the case of `CCOc1ccc(-c2nc3ccccc3[nH]2)cc1` [Example 67, 2-(4-Ethoxyphenyl)-1H-benzo[d]imidazole], the “TNF α Inhibition” value is listed as “C (C = <50% inh.)”.

Take `c1ccc(Oc2ccc(-c3nc4ccccc4[nH]3)cc2)cc1` [Example 72, 2-(4-Phenoxyphenyl)-1H-benzo[d]imidazole]: the “TNF α Inhibition” value was “C (C = <50% inh.)”.

As for `COc1cccc(-c2nc3ccccc3[nH]2)c1` [Example 20, 2-(3-Methoxy-phenyl)-1H-benzo[d]imidazole], the “TNF α Inhibition” value is recorded as “C (C = <50% inh.)”.

With `CC(C)(C)c1ccc(-c2nc3cnccc3[nH]2)cn1` [Example 13, 2-(6-tert-Butyl-3-pyridyl)-1H-imidazo[4,5-c]-pyridine], the “TNF α Inhibition” value was “B (B = 50-80% inh.)”.

As for `COc1cccc2[nH]c(-c3ccc(C(C)(C)C)cc3)nc12` [Example 51, 2-(4-tert-Butylphenyl)-4-methoxy-1H-benzo[d]imidazole], the “TNF α Inhibition” value is “A (A = >80% inh.)”.

With `CC(C)(C)c1ccc(-c2nc3cc(O)ccc3[nH]2)cc1` [Example 32, 2-(4-tert-Butylphenyl)-1H-benzo[d]imidazol-5-ol], the “TNF α Inhibition” value is “A (A = >80% inh.)”.

For the molecule `FC(F)(F)c1ccccc1-c1nc2ccccc2[nH]1` [Example 22, 2-(2-Trifluoro-methylphenyl)-1H-benzo[d]imidazole], the “TNF α Inhibition” value is “C (C = <50% inh.)”.

Regarding `CC(C)(C)c1ccc(-c2nc3c(O)cccc3[nH]2)cc1` [Example 50, 2-(4-tert-Butylphenyl)-1H-benzo[d]imidazol-4-ol], the “TNF α Inhibition” value is on record as “A (A = >80% inh.)”.

On to `CC(C)(C)c1cc(-c2nc3ccccc3[nH]2)cc(C(C)(C)C)c1` [Example 53, 2-(3,5-di-tert-Butylphenyl)-1H-benzo[d]imidazole], for which the “TNF α Inhibition” value is recorded as “C (C = <50% inh.)”.

In the case of `CC(C)(C)c1ccc(-c2nc3ccccc3o2)cc1` [Example 4, 2-(4-tert-Butylphenyl)-1,3-benzoxazole], the “TNF α Inhibition” value is listed as “B (B = 50-80% inh.)”.

In the case of `Brc1cccc(-c2nc3ccccc3[nH]2)c1` [Example 19, 2-(3-Bromophenyl)-1H-benzo[d]imidazole], the “TNF α Inhibition” value is recorded as “C (C = <50% inh.)”.

For the molecule `Fc1cccc(-c2nc3ccccc3[nH]2)c1` [Example 36, 2-(3-Fluorophenyl)-1H-benzo[d]imidazole], the “TNF α Inhibition” value was “C (C = <50% inh.)”.

For `Cc1cccc(-c2nc3ccccc3[nH]2)c1` [Example 9, 2-(3-Methylphenyl)-1H-benzo[d]imidazole], the “TNF α Inhibition” value is “C (C = <50% inh.)”.

As to `Cc1ccc(-c2nc3ccccc3[nH]2)cc1` [Example 11, 2-(4-Methylphenyl)-1H-benzo[d]imidazole], the “TNF α Inhibition” value is on record as “A (A = >80% inh.)”.

In the case of `CC(C)(C)c1ccc(-c2nc3cc(F)c(F)cc3[nH]2)cc1` [Example 52, 2-(4-tert-Butylphenyl)-5,6-difluoro-1H-benzo[d]imidazole], the “TNF α Inhibition” value was “C (C = <50% inh.)”.

On to `CC(C)(C)c1ccc(-c2nc3ccccc3s2)cc1` [Example 3, 2-(4-tert-Butylphenyl)-1,3-benzothiazole], for which the “TNF α Inhibition” value is “C (C = <50% inh.)”.

For the molecule `Nc1cccc(-c2nc3ccccc3[nH]2)c1` [Example 47, 2-(3-Aminophenyl)-1H-benzo[d]imidazole], the “TNF α Inhibition” value is on record as “C (C = <50% inh.)”.

As to `Oc1ccccc1-c1nc2ccccc2[nH]1` [Example 16, 2-(2-Hydroxy-phenyl)-1H-benzo[d]imidazole], the “TNF α Inhibition” value is “C (C = <50% inh.)”.
